Each structure is given as a SMILES string.

For 33 compounds, IC50 and EC50 results are on record in US9522888B2, “Substituted bicyclic compounds” (BRISTOL-MYERS SQUIBB COMPANY, priority 2014, dated 2016).

The target of one experiment is human S1P1 (Homo sapiens (Human), UniProt P21453). Briefly: S1P1 binding assay (33P-S1P radioligand competition, CHO cell membranes). The conditions noted are these: phosphate examples; read-out: S1P1 Binding. The method, boiled down:
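Radioligand is 33P-S1P, competing for membranes from human S1P1-expressing CHO cells. Membranes resuspended in 50 mM HEPES pH 7.5, 100 mM NaCl, 1 mM MgCl2, 2 mM EDTA.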
On the technique in general: In a radioligand displacement assay an active substance lowers the binding of a labelled ligand.

Another experiment concerns the target hS1P1/CHO cells (Homo sapiens (Human), UniProt P21453). Briefly: hS1P1 ERK phosphorylation (S1P1 pERK). It counts as cell-based. Particulars: phosphate examples. The method, boiled down:
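Agonism read as ERK phosphorylation (SureFire pERK) in hS1P1/CHO lysates, normalised to the maximal effect of 10 μM S1P. Cells were held 2 h in serum-free medium, then treated with compound for 7 min at 37° C. in HBSS/20 mM HEPES.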

Experiment [1] deals with S1P3 (membranes prepared from EDG3-Gal5-bla HEK293T cells) (Homo sapiens (Human), UniProt Q99500). Briefly: Receptor [35S] GTPγS binding assay (S1P3 GTPγS). It counts as biochemical. Particulars: phosphate examples; read-out: S1P3 GTPγS. The method, boiled down:
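Membranes (3 μg protein/well) from S1P1/CHO cells or EDG3-Gal5-bla HEK293T cells (S1P3) were incubated 45 min at room temperature with 0.2 nM final [35S]GTPγS in HEPES pH 7.5 buffer with 10 μM GDP, MgCl2 and saponin. Bound label counted after filtration; EC50 from 11-point, 3-fold dilutions.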

The target in experiment [2] is S1P1 (membranes prepared from S1P1/CHO cells) (Homo sapiens (Human), UniProt P21453). Briefly: Receptor [35S] GTPγS binding assay (S1P1 GTPγS). It counts as biochemical. The conditions noted are these: phosphate examples; read-out: S1P1 GTPγS. The method, boiled down:
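Agonist-stimulated [35S]GTPγS binding (0.2 nM final) to S1P1/CHO membranes, 3 μg protein/well, measured after 45 min at room temperature. Buffer contained 10 μM GDP, saponin and fatty-acid-free BSA at pH 7.5. Compounds tested as 11-point 3-fold series; bound label captured on filters, scintillation-counted, EC50 reported.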
(GTPγS is a poorly hydrolysed GTP analogue; its binding reports G protein activation.)

Chain of human S1P1 (P21453 whole entry): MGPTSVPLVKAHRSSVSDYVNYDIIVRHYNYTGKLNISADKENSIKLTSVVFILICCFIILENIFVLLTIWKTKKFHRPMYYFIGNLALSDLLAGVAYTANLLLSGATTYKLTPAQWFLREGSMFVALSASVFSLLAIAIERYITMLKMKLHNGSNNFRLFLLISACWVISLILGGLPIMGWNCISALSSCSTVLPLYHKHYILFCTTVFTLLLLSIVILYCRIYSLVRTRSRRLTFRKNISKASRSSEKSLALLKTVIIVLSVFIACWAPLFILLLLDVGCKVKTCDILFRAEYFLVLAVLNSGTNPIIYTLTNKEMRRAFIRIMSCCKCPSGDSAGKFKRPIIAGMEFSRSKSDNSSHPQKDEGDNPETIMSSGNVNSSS
Chain of hS1P1/CHO cells (P21453 whole entry): as above
Chain of S1P1 (membranes prepared from S1P1/CHO cells) (P21453 whole entry): as above
Chain of S1P3 (membranes prepared from EDG3-Gal5-bla HEK293T cells) (Q99500 whole entry): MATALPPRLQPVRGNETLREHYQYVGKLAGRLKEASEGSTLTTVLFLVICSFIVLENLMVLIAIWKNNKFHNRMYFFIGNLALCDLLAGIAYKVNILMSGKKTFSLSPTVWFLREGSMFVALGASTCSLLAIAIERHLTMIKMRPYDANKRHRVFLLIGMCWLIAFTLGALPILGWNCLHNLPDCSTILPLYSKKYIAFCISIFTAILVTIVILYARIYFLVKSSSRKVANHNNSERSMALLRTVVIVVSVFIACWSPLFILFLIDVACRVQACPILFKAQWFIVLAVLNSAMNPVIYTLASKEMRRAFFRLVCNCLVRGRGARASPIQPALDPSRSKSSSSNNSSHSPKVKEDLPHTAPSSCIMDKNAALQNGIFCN

On to `CCCCCO[C@@H]1CCc2cc([C@@H]3CC[C@](N)(COP(=O)(O)O)C3)ccc2C1` [compound 433], for which, on human S1P1, the IC50 was 10 to 100 nM. For the same compound, the EC50 is less than 10 nM at hS1P1/CHO cells, greater than 625 nM in experiment [1] and 100 to 1000 nM in experiment [2].
`CCCCCO[C@H]1CCc2cc([C@@H]3CC[C@](N)(COP(=O)(O)O)C3)ccc2C1` [compound 434]: the IC50 at human S1P1 is less than 10 nM. The EC50 was less than 10 nM at hS1P1/CHO cells, greater than 625 nM in experiment [1] and 10 to 100 nM in experiment [2].
For the compound `CCCCO[C@H]1CCc2cc([C@H]3CC[C@](N)(COP(=O)(O)O)C3)ccc2C1` [compound 436], the IC50 at human S1P1 was less than 10 nM. For the same compound, the EC50 at hS1P1/CHO cells was less than 10 nM; in experiment [1] it was greater than 625 nM; in experiment [2], 10 to 100 nM.
As for `CCC/C=C\CO[C@H]1CCc2cc([C@H]3CC[C@](N)(COP(=O)(O)O)C3)ccc2C1` [compound 437], the IC50 at human S1P1 is less than 10 nM. For the same compound, the EC50 at hS1P1/CHO cells was less than 10 nM; in experiment [1], greater than 625 nM; in experiment [2], less than 10 nM.
For `CCC/C=C\CO[C@@H]1CCc2cc([C@H]3CC[C@](N)(COP(=O)(O)O)C3)ccc2C1` [compound 438], the IC50 at human S1P1 was less than 10 nM. The EC50 at hS1P1/CHO cells is less than 10 nM; in experiment [1] it was greater than 625 nM; in experiment [2], 10 to 100 nM.
`CCCC/C=C\CO[C@H]1CCc2cc([C@H]3CC[C@](N)(COP(=O)(O)O)C3)ccc2C1` [compound 440]: the IC50 at human S1P1 was less than 10 nM. Besides, the EC50 at hS1P1/CHO cells is less than 10 nM; in experiment [1] it was greater than 625 nM; in experiment [2], less than 10 nM.
As for `COc1cccc(CO[C@H]2CCc3cc([C@H]4CC[C@](N)(COP(=O)(O)O)C4)ccc3C2)c1` [compound 442], at human S1P1, the IC50 is less than 10 nM. Besides, the values for the EC50 (on hS1P1/CHO cells; in experiment [1]; in experiment [2]) were less than 10 nM, greater than 625 nM and less than 10 nM, respectively.
Consider `CCOc1cccc(CO[C@@H]2CCc3cc([C@H]4CC[C@](N)(COP(=O)(O)O)C4)ccc3C2)c1` [compound 444], for which the IC50 at human S1P1 was less than 10 nM. In addition, the EC50 on hS1P1/CHO cells is less than 10 nM; in experiment [1], greater than 625 nM; in experiment [2] it was less than 10 nM.
As for `N[C@]1(COP(=O)(O)O)CC[C@H](c2ccc3c(c2)CC[C@H](COCc2ccccc2)C3)C1` [compound 445], the IC50 on human S1P1 lay in the range of 10 to 100 nM. Further, the EC50 on hS1P1/CHO cells is 10 to 100 nM; in experiment [1], greater than 625 nM; in experiment [2], 10 to 100 nM.
Turning to `CCCCOC[C@H]1CCc2cc([C@H]3CC[C@](N)(COP(=O)(O)O)C3)ccc2C1` [compound 446], the IC50 at human S1P1 lay in the range of 10 to 100 nM. Also, the figures for the EC50 (on hS1P1/CHO cells; in experiment [1]; in experiment [2]) were less than 10 nM, greater than 625 nM and 100 to 1000 nM, respectively.
In the same order, the values of `CCCCOC[C@@H]1CCc2cc([C@H]3CC[C@](N)(COP(=O)(O)O)C3)ccc2C1` [compound 447] are 10 to 100 nM, less than 10 nM, greater than 625 nM and 100 to 1000 nM.
On the same counts, the results for `CCCCCOC[C@H]1CCc2cc([C@H]3CC[C@](N)(COP(=O)(O)O)C3)ccc2C1` [compound 448] are less than 10 nM, less than 10 nM, greater than 625 nM and less than 10 nM.
In the same order, the values of `N[C@]1(COP(=O)(O)O)CC[C@H](c2ccc3c(c2)CC[C@@H](COc2ccc(F)cc2)C3)C1` [compound 449] are less than 10 nM, 10 to 100 nM, greater than 625 nM and 10 to 100 nM.
For the compound `CCCCCCCCCCOC[C@H]1CCc2cc([C@H]3CC[C@](N)(COP(=O)(O)O)C3)ccc2C1` [compound 450], the IC50 on human S1P1 is less than 10 nM. The EC50 is 10 to 100 nM at hS1P1/CHO cells, greater than 625 nM in experiment [1] and less than 10 nM in experiment [2].
In the case of `N[C@]1(COP(=O)(O)O)CC[C@H](c2ccc3c(c2)CC[C@@H](COCCCC(F)(F)F)C3)C1` [compound 451], at human S1P1, the IC50 is less than 10 nM. Also, the EC50 on hS1P1/CHO cells is 10 to 100 nM; in experiment [1], greater than 625 nM; in experiment [2], less than 10 nM.
Consider `C=CCCOC[C@@H]1CCc2cc([C@H]3CC[C@](N)(COP(=O)(O)O)C3)ccc2C1` [compound 452], for which the IC50 on human S1P1 is less than 10 nM. Further, the figures for the EC50 (on hS1P1/CHO cells; in experiment [1]; in experiment [2]) were less than 10 nM, greater than 625 nM and less than 10 nM, respectively.
On to `CC(C)=CCOC[C@@H]1CCc2cc([C@H]3CC[C@](N)(COP(=O)(O)O)C3)ccc2C1` [compound 453], for which, at human S1P1, the IC50 lay in the range of 10 to 100 nM. Moreover, the EC50 at hS1P1/CHO cells is less than 10 nM; in experiment [1] it was greater than 625 nM; in experiment [2], 10 to 100 nM.
Turning to `C=CCCCOC[C@@H]1CCc2cc([C@H]3CC[C@](N)(COP(=O)(O)O)C3)ccc2C1` [compound 454], the IC50 on human S1P1 was less than 10 nM. The EC50 at hS1P1/CHO cells is less than 10 nM; in experiment [1], greater than 625 nM; in experiment [2], 10 to 100 nM.
Take `CC/C=C\COC[C@@H]1CCc2cc([C@H]3CC[C@](N)(COP(=O)(O)O)C3)ccc2C1` [compound 455]: the IC50 on human S1P1 was less than 10 nM. The EC50 on hS1P1/CHO cells was less than 10 nM; in experiment [1] it was greater than 625 nM; in experiment [2], less than 10 nM.
For the compound `CCC=CCOC[C@@H]1CCc2cc([C@H]3CC[C@](N)(COP(=O)(O)O)C3)ccc2C1` [compound 456], the IC50 at human S1P1 fell in the range of 10 to 100 nM. Besides, the EC50 at hS1P1/CHO cells is less than 10 nM; in experiment [1], greater than 625 nM; in experiment [2], less than 10 nM.
Take `CC(C)CCOC[C@@H]1CCc2cc([C@H]3CC[C@](N)(COP(=O)(O)O)C3)ccc2C1` [compound 457]: the IC50 on human S1P1 was less than 10 nM. In addition, the EC50 at hS1P1/CHO cells was less than 10 nM; in experiment [1], greater than 625 nM; in experiment [2], 10 to 100 nM.
Take `COCCCOC[C@@H]1CCc2cc([C@H]3CC[C@](N)(COP(=O)(O)O)C3)ccc2C1` [compound 458]: the IC50 on human S1P1 was less than 10 nM. For the same compound, the EC50 at hS1P1/CHO cells was less than 10 nM; in experiment [1], greater than 625 nM; in experiment [2] it was 10 to 100 nM.
In the case of `N[C@]1(COP(=O)(O)O)CC[C@H](c2ccc3c(c2)CC[C@H](COc2ccccc2)C3)C1` [compound 459], the IC50 at human S1P1 was less than 10 nM. The EC50 on hS1P1/CHO cells was less than 10 nM; in experiment [1], greater than 625 nM; in experiment [2], 10 to 100 nM.
In the case of `CC(C)=CCCOC[C@@H]1CCc2cc([C@H]3CC[C@](N)(COP(=O)(O)O)C3)ccc2C1` [compound 461], the IC50 on human S1P1 is less than 10 nM. Further, the EC50 was less than 10 nM on hS1P1/CHO cells, greater than 625 nM in experiment [1] and less than 10 nM in experiment [2].
Turning to `CCCC=CCOC[C@@H]1CCc2cc([C@H]3CC[C@](N)(COP(=O)(O)O)C3)ccc2C1` [compound 462], the IC50 at human S1P1 is less than 10 nM. Moreover, the figures for the EC50 (at hS1P1/CHO cells; in experiment [1]; in experiment [2]) were less than 10 nM, greater than 50 nM and less than 10 nM, respectively.
Turning to `CC(C)(C)CCOC[C@@H]1CCc2cc([C@H]3CC[C@](N)(COP(=O)(O)O)C3)ccc2C1` [compound 464], the IC50 at human S1P1 is less than 10 nM. The EC50 on hS1P1/CHO cells is 10 to 100 nM; in experiment [1], greater than 625 nM; in experiment [2], less than 10 nM.
`Cc1ccc(OC[C@H]2CCc3cc([C@H]4CC[C@](N)(COP(=O)(O)O)C4)ccc3C2)cc1` [compound 466]: the IC50 at human S1P1 fell in the range of 10 to 100 nM. The EC50 on hS1P1/CHO cells was 10 to 100 nM; in experiment [1], greater than 625 nM; in experiment [2] it was 10 to 100 nM.
For `Cc1ccc(OC[C@@H]2CCc3cc([C@H]4CC[C@](N)(COP(=O)(O)O)C4)ccc3C2)cc1` [compound 467], the IC50 at human S1P1 fell in the range of 10 to 100 nM. The results for the EC50 (on hS1P1/CHO cells; in experiment [1]; in experiment [2]) were 10 to 100 nM, greater than 625 nM and 10 to 100 nM, respectively.
As for `Cc1ccccc1OC[C@H]1CCc2cc([C@H]3CC[C@](N)(COP(=O)(O)O)C3)ccc2C1` [compound 468], the IC50 at human S1P1 was less than 10 nM. Besides, the figures for the EC50 (on hS1P1/CHO cells; in experiment [1]; in experiment [2]) were 10 to 100 nM, greater than 625 nM and 10 to 100 nM, respectively.
Take `Cc1ccccc1OC[C@@H]1CCc2cc([C@H]3CC[C@](N)(COP(=O)(O)O)C3)ccc2C1` [compound 469]: the IC50 at human S1P1 was in the range of 10 to 100 nM. Moreover, the EC50 was less than 10 nM on hS1P1/CHO cells, greater than 625 nM in experiment [1] and 10 to 100 nM in experiment [2].
Take `Cc1cccc(OC[C@@H]2CCc3cc([C@H]4CC[C@](N)(COP(=O)(O)O)C4)ccc3C2)c1` [compound 470]: the IC50 on human S1P1 fell in the range of 100 to 1000 nM. The EC50 on hS1P1/CHO cells was less than 10 nM; in experiment [1] it was greater than 625 nM; in experiment [2], 10 to 100 nM.
On the same counts, the results for `N[C@]1(COP(=O)(O)O)CC[C@H](c2ccc3c(c2)CC[C@@H](COCc2cccs2)C3)C1` [compound 472] are 100 to 1000 nM, less than 10 nM, greater than 625 nM and 100 to 1000 nM.
Regarding `Cc1ccc(COC[C@@H]2CCc3cc([C@H]4CC[C@](N)(COP(=O)(O)O)C4)ccc3C2)cc1` [compound 474], at human S1P1, the IC50 was less than 10 nM. Also, the EC50 on hS1P1/CHO cells is less than 10 nM; in experiment [1], greater than 625 nM; in experiment [2], 10 to 100 nM.
